Inhibition data for one compound are collected here from publication doi:10.1101/215335v1 (biorxiv, 2017).

Molecules are shown by their SMILES.

This test addresses T1, TaALMT1 (Triticum aestivum, UniProt Q76LB1).
T1 sequence (Q76LB1 1-459): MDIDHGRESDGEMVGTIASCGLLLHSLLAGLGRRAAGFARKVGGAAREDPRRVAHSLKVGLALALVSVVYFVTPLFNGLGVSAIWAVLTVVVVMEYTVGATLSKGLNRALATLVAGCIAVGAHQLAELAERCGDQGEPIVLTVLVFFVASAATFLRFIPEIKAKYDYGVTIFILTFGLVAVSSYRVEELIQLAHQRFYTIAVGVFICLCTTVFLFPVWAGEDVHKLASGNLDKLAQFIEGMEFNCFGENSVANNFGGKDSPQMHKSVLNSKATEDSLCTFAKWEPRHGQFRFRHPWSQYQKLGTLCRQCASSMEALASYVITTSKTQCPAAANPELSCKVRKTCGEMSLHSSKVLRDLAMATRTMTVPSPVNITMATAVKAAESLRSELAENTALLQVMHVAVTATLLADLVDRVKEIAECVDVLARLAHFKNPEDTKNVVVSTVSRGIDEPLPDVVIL
In words: TEVC in Xenopus oocytes, malate-activated inward current. The test is classed as cell-based. The following applies: read-out: % inhibition at 100 μM.

The inhibition is the percentage by which the read-out fell short of the control. Turning to `C=CC(N)CCC(=O)O` (stereo not shown) [vigabatrin], the inhibition at 100 µM worked out at 100%.
